# Legend:
# MEK1 = target: T1, MEK1 (Homo sapiens, UniProt Q02750); test: MEK1-inhibiting activity, fluorescent polarization method (CRAF/MEK1/ERK2 cascade, IMAP); type: biochemical; details: Table 3; read-out: MEK1 IC50
# T1 construct: purchased Thermo Fisher Scientific Inc. (MEK1, CRAF); Carna Biosciences, Inc. (ERK2)
# Protocol: The MEK1-inhibiting activity of the compounds listed in Table 3 below were evaluated by the fluorescent polarization method as described below.
# BRAF = target: T2, BRAF (Homo sapiens, UniProt P15056); test: BRAF-inhibiting activity, time-resolved fluorescence-fluorescence resonance energy transfer assay; type: biochemical; details: read-out: BRAF IC50; Table 3
# T2 construct: purchased Eurofins Genomics KK; (BRAF); Thermo Fisher Scientific Inc. (MEK1)
# T2 sequence (P15056 417-766 limits assumed): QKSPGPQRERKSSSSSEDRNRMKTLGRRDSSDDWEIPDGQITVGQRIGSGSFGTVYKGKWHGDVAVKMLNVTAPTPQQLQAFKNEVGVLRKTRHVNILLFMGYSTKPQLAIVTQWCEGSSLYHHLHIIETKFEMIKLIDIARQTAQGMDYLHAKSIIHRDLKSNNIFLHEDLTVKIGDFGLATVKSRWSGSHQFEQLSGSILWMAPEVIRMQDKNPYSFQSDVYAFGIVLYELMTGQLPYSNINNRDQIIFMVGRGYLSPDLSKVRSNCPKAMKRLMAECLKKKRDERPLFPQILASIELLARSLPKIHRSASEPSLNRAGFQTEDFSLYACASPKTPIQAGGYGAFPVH
# Protocol: The BRAF-inhibiting activity of the compounds listed in Table 3 below was evaluated by the time-resolved fluorescence-fluorescence resonance energy transfer assay as described below.
# A549 = test: Cell proliferation-inhibiting activity (ATP in viable cells, CellTiter-Glo), A549; type: cell-based, human; details: A549, 96 h; human lung cancer cells, 4 days; read-out: A549 IC50
# Calu-6 = test: Cell proliferation-inhibiting activity (ATP in viable cells, CellTiter-Glo), Calu-6; type: cell-based, human; details: Calu-6, 96 h; human lung cancer cells, 4 days; read-out: Calu-6 IC50
# NCI-H2122 = test: Cell proliferation-inhibiting activity (ATP in viable cells, CellTiter-Glo), NCI-H2122; type: cell-based, human; details: NCI-H2122, 96 h; human lung cancer cells, 4 days; read-out: NCI-H2122 IC50
# [1] = Human liver microsome stability; type: in vitro ADME; details: human liver microsomes, pH 7.4
# T1 sequence (Q02750 whole entry): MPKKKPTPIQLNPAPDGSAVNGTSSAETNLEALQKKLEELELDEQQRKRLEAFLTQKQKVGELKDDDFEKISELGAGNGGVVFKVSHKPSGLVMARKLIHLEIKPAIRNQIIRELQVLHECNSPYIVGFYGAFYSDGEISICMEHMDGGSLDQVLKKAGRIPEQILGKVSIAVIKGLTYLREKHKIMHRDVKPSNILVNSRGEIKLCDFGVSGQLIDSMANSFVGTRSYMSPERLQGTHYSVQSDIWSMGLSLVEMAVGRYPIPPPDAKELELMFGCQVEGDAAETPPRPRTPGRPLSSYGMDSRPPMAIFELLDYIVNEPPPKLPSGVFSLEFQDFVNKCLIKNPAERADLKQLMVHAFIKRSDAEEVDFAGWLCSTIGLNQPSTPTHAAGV
Compound,IC50 (MEK1) [nM],IC50 (BRAF) [nM],IC50 (A549) [nM],IC50 (Calu-6) [nM],IC50 (NCI-H2122) [nM],microsomal CLint at 0.99 µM [1] [µL/min/mg]
"CCNS(=O)(=O)Nc1nccc(Cc2cc(C(N)=O)c(Nc3ccc(I)cc3F)c(F)c2F)c1F [Compound A-40, 5-[[2-(ethylsulfamoylamino)-3-fluoropyridin-4-yl]methyl]-3,4-d ifluoro-2-(2-fluoro-4-iodoanilino)benzamide]",19,2,4,12,2,2
"CCCNS(=O)(=O)Nc1nccc(Cc2cc(C(N)=O)c(Nc3ccc(I)cc3F)c(F)c2F)c1F [Compound A-41, 3,4-difluoro-2-(2-fluoro-4-iodoanilino)-5-[[3-fluoro-2-(propylsulfamoylamino)pyridin-4-yl]methyl]benzamide]",29,7,12,8,2,5
"NC(=O)c1cc(Cc2ccnc(NS(=O)(=O)NCCF)c2F)c(F)c(F)c1Nc1ccc(I)cc1F [Compound A-42, 3,4-difluoro-5-[[3-fluoro-2-(2-fluoroethylsulfamoylamino)pyridin-4-yl]methyl]-2-(2-fluoro-4-iodoanilino)benzamide]",18,6,9,68,7,6
"CNS(=O)(=O)Nc1nccc(Cc2cc(C(=O)NOCCO)c(Nc3ccc(I)cc3F)c(F)c2F)c1F [Compound B-1, 3,4-difluoro-2-(2-fluoro-4-iodoanilino)-5-[[3-fluoro-2-(methylsulfamoylamino)pyridin-4-yl]methyl]-N-(2-hydroxyethoxy)benzamide]",2,5,6,11,2,15
"CNS(=O)(=O)Nc1nccc(Cc2cc(C(=O)NOCCOC)c(Nc3ccc(I)cc3F)c(F)c2F)c1F [Compound B-2, 3,4-Difluoro-2-(2-fluoro-4-iodoanilino)-5-[[3-fluoro-2-(methylsulfamoylamino)pyridin-4-yl]methyl]-N-(2-methoxyethoxy)benzamide]",4,3,1,7,1,53
"NC(=O)c1cc(Cc2ccnc(NS(N)(=O)=O)c2F)c(F)c(F)c1Nc1ccc(I)cc1F [Compound B-10, 3,4-Difluoro-2-(2-fluoro-4-iodoanilino)-5-[[3-fluoro-2-(sulfamoylamino)pyridin-4-yl]methyl]benzamide]",22,11,72,33,8,3
"NC(=O)c1cc(Cc2ccnc(NS(=O)(=O)NC3CC3)c2F)c(F)c(F)c1Nc1ccc(I)cc1Cl [Compound B-11, 2-(2-Chloro-4-iodoanilino)-5-[[2-(cyclopropylsulfamoylamino)-3-fluor opyridin-4-yl]methyl]-3,4-difluorobenzamide]",19,3,18,43,16,26
"O=C(NC1CC1)c1cc(Cc2ccnc(NS(=O)(=O)NC3CC3)c2F)c(F)c(F)c1Nc1ccc(I)cc1Cl [Compound B-12, 2-(2-Chloro-4-iodoanilino)-N-cyclopropyl-5-[[2-(cyclopropylsulfamoylamino)-3-fluoropyridin-4-yl]methyl]-3,4-difluorobenzamide]",61,8,14,30,8,39
"CC(C)(C)ONC(=O)c1cc(Cc2ccnc(NS(=O)(=O)NC3CC3)c2F)c(F)c(F)c1Nc1ccc(I)cc1Cl [Compound B-13, 2-(2-Chloro-4-iodoanilino)-5-[[2-(cyclopropylsulfamoylamino)-3-fluor opyridin-4-yl]methyl]-3,4-difluoro-N-[(2-methylpropan-2-yl)oxy]benzamide]",13,10,26,34,14,66
"NC(=O)c1cc(Cc2ccnc(NS(N)(=O)=O)c2)c(F)c(F)c1Nc1ccc(I)cc1F [Compound C-1, 3,4-Difluoro-2-(2-fluoro-4-iodoanilino)-5-[[2-(sulfamoylamino)pyridin-4-yl]methyl]benzamide]",72,4,7,16,4,10
"CNS(=O)(=O)Nc1cccc(Cc2cc(C(=O)NC3CC3)c(Nc3ccc(I)cc3F)c(F)c2F)c1 [Compound C-6, N-Cyclopropyl-3,4-difluoro-2-(2-fluoro-4-iodoanilino)-5-[[3-(methylsulfamoylamino)phenyl]methyl]benzamide]",268,9,6,31,4,74
"CCS(=O)(=O)Nc1cccc(Cc2cc(C(N)=O)c(Nc3ccc(I)cc3F)c(F)c2F)c1F [Compound D-4, 5-[[3-(ethylsulfonylamino)-2-fluorophenyl]methyl]-3,4-difluoro-2-(2-fluoro-4-iodoanilino)benzamide]",196,3,16,67,5,9
"COCCS(=O)(=O)Nc1cccc(Cc2cc(C(N)=O)c(Nc3ccc(I)cc3F)c(F)c2F)c1F [Compound D-5, 3,4-Difluoro-2-(2-fluoro-4-iodoanilino)-5-[[2-fluoro-3-(2-methoxyethylsulfonylamino)phenyl]methyl]benzamide]",169,7,10,71,5,28
"CNS(=O)(=O)Nc1cccc(Cc2cc(C(=O)NC3CC3)c(Nc3ccc(I)cc3F)c(F)c2F)c1F [Compound D-6, N-Cyclopropyl-3,4-difluoro-2-(2-fluoro-4-iodoanilino)-5-[[2-fluoro-3-(methylsulfamoylamino)phenyl]methyl]benzamide]",55,8,8,24,2,34
"NS(=O)(=O)Nc1cccc(Cc2cc(C(=O)NC3CC3)c(Nc3ccc(I)cc3F)c(F)c2F)c1F [Compound D-7, N-Cyclopropyl-3,4-difluoro-2-(2-fluoro-4-iodoanilino)-5-[[2-fluoro-3-(sulfamoylamino)phenyl]methyl]benzamide]",282,4,3,9,2,11
"CCS(=O)(=O)Nc1cccc(Cc2cc(C(=O)NOC)c(Nc3ccc(I)cc3F)c(F)c2F)c1F [Compound E-1, 5-[[3-(ethylsulfonylamino)-2-fluorophenyl]methyl]-3,4-difluoro-2-(2-fluoro-4-iodoanilino)-N-methoxybenzamide]",40,12,2,6,0.4,17
"CCS(=O)(=O)Nc1cccc(Cc2cc(C(=O)NOC(C)(C)C)c(Nc3ccc(I)cc3F)c(F)c2F)c1F [Compound E-2, 5-[[3-(Ethylsulfonylamino)-2-fluorophenyl]methyl]-3,4-difluoro-2-(2-fluoro-4-iodoanilino)-N-[(2-methylpropan-2-yl)oxy]benzamide]",86,22,6,19,2,42
COCC1(S(=O)(=O)Nc2cccc(Cc3cc(C(=O)NOC(C)(C)C)c(Nc4ccc(I)cc4F)c(F)c3F)c2F)CC1 [Compound E-4],131,11,6,26,5,168
"CONC(=O)c1cc(Cc2cccc(NS(=O)(=O)C3(C)CC3)c2F)c(F)c(F)c1Nc1ccc(I)cc1F [Compound E-5, 3,4-Difluoro-2-(2-fluoro-4-iodoanilino)-5-[[2-fluoro-3-[(1-methylcyclopropyl)sulfonylamino]phenyl]methyl]-N-methoxybenzamide]",19,8,5,17,3,78
"CC(C)(C)ONC(=O)c1cc(Cc2cccc(NS(=O)(=O)C3(C)CC3)c2F)c(F)c(F)c1Nc1ccc(I)cc1F [Compound E-6, 3,4-Difluoro-2-(2-fluoro-4-iodoanilino)-5-[[2-fluoro-3-[(1-methylcyclopropyl)sulfonylamino]phenyl]methyl]-N-[(2-methylpropan-2-yl)oxy]be nzamide]",34,17,8,28,6,105
"CNS(=O)(=O)Nc1cccc(Cc2cc(C(N)=O)c(Nc3ccc(I)cc3F)c(F)c2F)c1F [Compound E-7, 3,4-difluoro-2-(2-fluoro-4-iodoanilino)-5-[[2-fluoro-3-(methylsulfamoylamino)phenyl]methyl]benzamide]",334,6,1,8,0.4,5

# Source: patent publication EP4725941A1, “ARYLAMIDE DERIVATIVE HAVING ANTITUMOR ACTIVITY” (priority 2020, dated 2021)
